From ChEMBL document CHEMBL4610055, “Discovery and optimization of novel pyridines as highly potent and selective glycogen synthase kinase 3 inhibitors” (Bioorg Med Chem Lett, 2020)

Tests used:
[1] = Inhibition of GSK3 (unknown origin) using CREB peptide as substrate; set-up: species or system Homo sapiens
[2] = Inhibition of GSK3 in CHO cells expressing insulin receptor assessed as activation of glycogen synthase measured after 30 mins in presence of glucose-6-phosphate by filter paper assay; assay type: cell-based; settings: Cricetulus griseus, 0.5 h
[3] = Activity in CHO cells expressing insulin receptor assessed as activation of glycogen synthase
[4] = molecular target: Glycogen synthase kinase-3 alpha (Homo sapiens) (UniProt P49840); test: Inhibition of wild-type human full length GSK3A (M1 to S483 residues) expressed in bacterial expression system at 10 uM by Kinomescan method relative to control
[5] = molecular target: Glycogen synthase kinase-3 beta (Homo sapiens) (UniProt P49841); test: Inhibition of wild-type human full length GSK3B (M1 to T433 residues) expressed in mammalian expression system at 10 uM by Kinomescan method relative to control
[6] = molecular target: Mitogen-activated protein kinase 8 (Homo sapiens) (UniProt P45983); test: Inhibition of wild-type human full length JNK1 (M1 to Q384 residues) expressed in mammalian expression system at 10 uM by Kinomescan method relative to control
[7] = molecular target: Mitogen-activated protein kinase 9 (Homo sapiens) (UniProt P45984); test: Inhibition of wild-type human full length JNK2 (M1 to Q382 residues) expressed in mammalian expression system at 10 uM by Kinomescan method relative to control
[8] = molecular target: Mitogen-activated protein kinase 10 (Homo sapiens) (UniProt P53779); test: Inhibition of wild-type human partial length JNK3 (V28 to Q422 residues) expressed in mammalian expression system at 10 uM by Kinomescan method relative to control
[9] = molecular target: Serine/threonine-protein kinase B-raf (Homo sapiens) (UniProt P15056); test: Inhibition of wild-type human partial length BRAF (S429 to E741 residues) expressed in mammalian expression system at 10 uM by Kinomescan method relative to control
[10] = Half life in ZDF rat; assay type: ADME; settings: in vivo
[11] = Half life in Beagle dog; assay type: ADME, Canis lupus familiaris; settings: in vivo
[12] = Oral bioavailability in ZDF rat; assay type: ADME, organism-based; settings: in vivo
Rattus norvegicus = test: Antidiabetic activity in ZDF rat administered as single dose via oral gavage by OGTT; assay type: functional

Mitogen-activated protein kinase 9 (Homo sapiens), sequence (P45984 whole entry, looked up, the tested form may be a part): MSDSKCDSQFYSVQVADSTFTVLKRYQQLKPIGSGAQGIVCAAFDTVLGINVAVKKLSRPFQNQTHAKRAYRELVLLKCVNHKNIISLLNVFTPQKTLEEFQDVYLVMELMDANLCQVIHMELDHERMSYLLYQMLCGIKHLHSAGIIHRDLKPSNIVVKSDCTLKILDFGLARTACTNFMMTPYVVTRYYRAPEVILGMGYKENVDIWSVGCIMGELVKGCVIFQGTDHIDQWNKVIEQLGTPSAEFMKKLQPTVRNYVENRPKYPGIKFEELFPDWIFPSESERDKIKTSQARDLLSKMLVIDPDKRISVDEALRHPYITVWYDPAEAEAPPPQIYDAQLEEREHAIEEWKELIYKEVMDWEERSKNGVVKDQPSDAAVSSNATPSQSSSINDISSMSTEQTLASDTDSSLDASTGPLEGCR
Glycogen synthase kinase-3 alpha (Homo sapiens), sequence (P49840 2-483 limits assumed): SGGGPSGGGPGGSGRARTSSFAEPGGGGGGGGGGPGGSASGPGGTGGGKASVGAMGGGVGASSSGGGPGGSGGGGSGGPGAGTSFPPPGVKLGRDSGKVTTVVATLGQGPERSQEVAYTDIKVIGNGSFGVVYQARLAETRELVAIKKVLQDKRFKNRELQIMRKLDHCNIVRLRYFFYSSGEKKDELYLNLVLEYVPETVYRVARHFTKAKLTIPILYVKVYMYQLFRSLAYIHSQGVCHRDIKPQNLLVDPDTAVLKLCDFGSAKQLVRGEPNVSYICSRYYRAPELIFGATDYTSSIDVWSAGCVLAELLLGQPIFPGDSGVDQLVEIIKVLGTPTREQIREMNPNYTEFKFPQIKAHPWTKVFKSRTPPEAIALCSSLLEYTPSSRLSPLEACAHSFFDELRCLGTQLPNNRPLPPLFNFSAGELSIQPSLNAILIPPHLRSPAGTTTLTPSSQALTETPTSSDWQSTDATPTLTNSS
Mitogen-activated protein kinase 8 (Homo sapiens), sequence (P45983 whole entry, the tested form may be a part): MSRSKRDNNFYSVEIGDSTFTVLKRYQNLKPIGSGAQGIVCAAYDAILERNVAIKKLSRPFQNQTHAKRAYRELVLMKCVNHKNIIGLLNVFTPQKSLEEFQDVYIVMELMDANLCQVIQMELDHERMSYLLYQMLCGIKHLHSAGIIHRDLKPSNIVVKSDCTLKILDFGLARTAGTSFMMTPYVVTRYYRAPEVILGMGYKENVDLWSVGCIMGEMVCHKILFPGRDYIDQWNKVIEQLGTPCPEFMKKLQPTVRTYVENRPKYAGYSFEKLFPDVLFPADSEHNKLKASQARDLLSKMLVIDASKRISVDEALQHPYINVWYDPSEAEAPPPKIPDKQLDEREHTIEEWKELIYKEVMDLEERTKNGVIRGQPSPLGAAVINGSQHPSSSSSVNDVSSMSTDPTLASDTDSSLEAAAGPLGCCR
Serine/threonine-protein kinase B-raf (Homo sapiens), sequence (P15056 whole entry, the tested form may be a part): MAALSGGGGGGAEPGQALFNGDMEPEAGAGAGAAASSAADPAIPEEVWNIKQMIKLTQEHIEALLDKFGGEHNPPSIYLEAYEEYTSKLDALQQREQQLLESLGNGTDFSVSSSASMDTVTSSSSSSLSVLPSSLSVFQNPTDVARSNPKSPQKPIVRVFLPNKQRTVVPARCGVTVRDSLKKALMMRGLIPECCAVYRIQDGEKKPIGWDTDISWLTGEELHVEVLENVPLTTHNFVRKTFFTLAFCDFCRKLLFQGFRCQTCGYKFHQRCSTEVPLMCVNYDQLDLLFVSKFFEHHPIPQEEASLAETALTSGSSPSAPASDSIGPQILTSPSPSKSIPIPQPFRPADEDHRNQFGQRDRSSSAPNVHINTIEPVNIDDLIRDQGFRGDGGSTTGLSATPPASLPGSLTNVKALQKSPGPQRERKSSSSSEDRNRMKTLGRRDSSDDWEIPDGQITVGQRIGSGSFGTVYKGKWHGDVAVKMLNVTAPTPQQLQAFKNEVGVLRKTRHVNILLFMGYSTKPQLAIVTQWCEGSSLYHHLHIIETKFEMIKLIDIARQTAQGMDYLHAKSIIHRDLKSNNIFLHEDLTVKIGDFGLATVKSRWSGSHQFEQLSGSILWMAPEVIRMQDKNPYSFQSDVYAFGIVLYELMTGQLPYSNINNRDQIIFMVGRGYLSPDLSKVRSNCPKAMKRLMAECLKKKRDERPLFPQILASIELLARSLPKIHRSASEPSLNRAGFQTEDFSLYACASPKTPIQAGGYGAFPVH
Mitogen-activated protein kinase 10 (Homo sapiens), sequence (P53779 whole entry, the tested form may be a part): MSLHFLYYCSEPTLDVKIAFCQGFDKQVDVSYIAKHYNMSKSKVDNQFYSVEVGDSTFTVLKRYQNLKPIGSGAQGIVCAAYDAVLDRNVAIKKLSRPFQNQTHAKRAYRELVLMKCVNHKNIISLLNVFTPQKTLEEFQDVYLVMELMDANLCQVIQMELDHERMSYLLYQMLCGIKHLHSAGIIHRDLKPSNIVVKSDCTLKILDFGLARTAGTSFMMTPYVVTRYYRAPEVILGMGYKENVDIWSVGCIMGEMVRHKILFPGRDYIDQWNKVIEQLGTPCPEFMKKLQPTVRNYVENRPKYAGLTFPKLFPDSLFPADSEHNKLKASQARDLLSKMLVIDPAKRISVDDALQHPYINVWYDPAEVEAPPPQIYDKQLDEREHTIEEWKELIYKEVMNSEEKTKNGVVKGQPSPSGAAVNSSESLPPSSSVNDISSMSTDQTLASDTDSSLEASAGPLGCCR
Glycogen synthase kinase-3 beta (Homo sapiens), sequence (P49841 whole entry, looked up, the tested form may be a part): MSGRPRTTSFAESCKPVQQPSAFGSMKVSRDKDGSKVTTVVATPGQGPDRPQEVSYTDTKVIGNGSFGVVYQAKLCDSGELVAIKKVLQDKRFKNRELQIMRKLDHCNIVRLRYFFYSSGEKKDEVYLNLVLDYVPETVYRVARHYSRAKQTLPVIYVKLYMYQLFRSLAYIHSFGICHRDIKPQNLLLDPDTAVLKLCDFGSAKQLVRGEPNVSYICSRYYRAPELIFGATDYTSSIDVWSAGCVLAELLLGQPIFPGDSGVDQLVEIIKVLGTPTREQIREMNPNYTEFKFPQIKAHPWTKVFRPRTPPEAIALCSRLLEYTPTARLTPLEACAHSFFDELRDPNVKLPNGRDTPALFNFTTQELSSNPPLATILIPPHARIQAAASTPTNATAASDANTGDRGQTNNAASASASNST

IC50 [1]	EC50 [2]	SMILES	further results
18 nM	1800 nM	Nc1nc(NCCNc2ccc(N3CCN(CC(F)(F)F)CC3=O)c(-c3ccc(Cl)cc3Cl)n2)ccc1[N+](=O)[O-]	
29 nM	1350 nM	CN1CCN(c2ccc(NCCNc3ccc([N+](=O)[O-])c(N)n3)nc2-c2ccccc2Cl)C(=O)C1	
	770 nM	Cc1cnc(-c2cnc(NCCNc3ccc(C#N)cn3)nc2-c2ccc(Cl)cc2Cl)[nH]1 [LADUVIGLUSIB]	EC50 [3]: 770 nM
8 nM	130 nM	CN1CCN(c2ccc(NCCNc3ccc([N+](=O)[O-])c(N)n3)nc2-c2ccc(Cl)cc2Cl)C(=O)C1	inhibition [4]: 99.5%; inhibition [5]: 95.8%; inhibition [6]: 92.2%; inhibition [7]: 97.4%; inhibition [8]: 98.3%; inhibition [9]: 91.8%; half-life [10]: 3.42 h; half-life [11]: 2.72 h; bioavailability [12]: 30%; ED50 (Rattus norvegicus): 10 mg/kg
1010 nM		C[C@H](CNc1ccc(N2CCN(C)CC2=O)c(-c2ccc(Cl)cc2Cl)n1)Nc1ccc([N+](=O)[O-])c(N)n1	
36 nM	310 nM	C[C@@H](CNc1ccc([N+](=O)[O-])c(N)n1)Nc1ccc(N2CCN(C)CC2=O)c(-c2ccc(Cl)cc2Cl)n1	
57 nM	760 nM	CN1CCN(c2ccc(NCCNc3ccc([N+](=O)[O-])c(N)n3)nc2-c2ccccc2C(F)(F)F)C(=O)C1	
44 nM	760 nM	CN1CCN(c2ccc(NCCNc3ccc([N+](=O)[O-])c(N)n3)nc2-c2ccc(Cl)cc2)C(=O)C1	
74 nM	3000 nM	CN1CCN(c2ccc(NCCNc3ccc([N+](=O)[O-])c(N)n3)nc2-c2cccc(Cl)c2)C(=O)C1	
207 nM		C[C@H](CNc1ccc([N+](=O)[O-])c(N)n1)Nc1ccc(N2CCN(C)CC2=O)c(-c2ccc(Cl)cc2Cl)n1	
12 nM	1600 nM	Nc1nc(NCCNc2ccc(NC(=O)CNCCO)c(-c3ccc(Cl)cc3Cl)n2)ccc1[N+](=O)[O-]	
52 nM	290 nM	CCc1ccc(-c2nc(NCCNc3ccc([N+](=O)[O-])c(N)n3)ccc2N2CCN(C)CC2=O)cc1	
202 nM		CN1CCN(c2ccc(NCCNc3ccc([N+](=O)[O-])c(N)n3)nc2-c2ccccc2)C(=O)C1	
13 nM	40 nM	Nc1nc(NCCNc2ccc(N3CCN(C4CC4)CC3=O)c(-c3ccc(Cl)cc3Cl)n2)ccc1[N+](=O)[O-]	
5 nM	530 nM	Nc1nc(NCCNc2ccc(N3CCCC3=O)c(-c3ccc(Cl)cc3Cl)n2)ccc1[N+](=O)[O-]	
69 nM	1080 nM	CN1CCN(c2ccc(NCCNc3ccc([N+](=O)[O-])c(N)n3)nc2-c2ccc(F)cc2F)C(=O)C1	
3700 nM		CN1CCN(c2ccc(NCCNc3ccc([N+](=O)[O-])c(N)n3)nc2-c2ccoc2)C(=O)C1	
11 nM	510 nM	Nc1nc(NCCNc2ccc(N3CCOCC3=O)c(-c3ccc(Cl)cc3Cl)n2)ccc1[N+](=O)[O-]	
13 nM	1400 nM	CC(=O)N1CCN(c2ccc(NCCNc3ccc([N+](=O)[O-])c(N)n3)nc2-c2ccc(Cl)cc2Cl)C(=O)C1	
11 nM	140 nM	Nc1nc(NCCNc2ccc(N3CCNCC3=O)c(-c3ccc(Cl)cc3Cl)n2)ccc1[N+](=O)[O-]	
15 nM	220 nM	CN1CCN(c2ccc(N(C)CCNc3ccc([N+](=O)[O-])c(N)n3)nc2-c2ccc(Cl)cc2Cl)C(=O)C1	
66 nM	1050 nM	C[C@@H](CNc1ccc(N2CCN(C)CC2=O)c(-c2ccc(Cl)cc2Cl)n1)Nc1ccc([N+](=O)[O-])c(N)n1	
13 nM	70 nM	Nc1nc(NCCNc2ccc(N3CCCCC3=O)c(-c3ccc(Cl)cc3Cl)n2)ccc1[N+](=O)[O-]	
